Source: patent US20140171357A1, “VANCOMYCIN DERIVATIVES” (Seachald Pharmaceuticals, Inc., priority 2011, published 2014)
Converted amounts (≈) assume the structure as drawn.

How the values were obtained:
VanC enterococci (22) = experiment: MIC broth microdilution, vanC-carrying enterococci
[1] = tested on: methicillin-resistant S. aureus (MRSA, 22); experiment: MIC broth microdilution, MRSA
[2] = tested on: vancomycin-susceptible E. faecium (21); experiment: MIC broth microdilution, vancomycin-susceptible E. faecium
[3] = tested on: vancomycin-susceptible E. faecalis (23); experiment: MIC broth microdilution, vancomycin-susceptible E. faecalis
[4] = tested on: Staphylococcus aureus (65 strains); experiment: MIC broth microdilution, S. aureus all isolates
[5] = tested on: methicillin-susceptible S. aureus (MSSA, 22); experiment: MIC broth microdilution, MSSA
[6] = tested on: Staphylococcus epidermidis (43 strains); experiment: MIC broth microdilution, S. epidermidis
[7] = tested on: VanA vancomycin-resistant E. faecium (10); experiment: MIC broth microdilution, VanA E. faecium
[8] = tested on: VanB vancomycin-resistant E. faecium (10); experiment: MIC broth microdilution, VanB E. faecium
[9] = tested on: VanB vancomycin-resistant E. faecalis (12); experiment: MIC broth microdilution, VanB E. faecalis
[10] = tested on: VanA vancomycin-resistant E. faecalis (11); experiment: MIC broth microdilution, VanA E. faecalis
S. pneumoniae (22) = experiment: MIC broth microdilution, S. pneumoniae; conditions: S. pneumoniae (22); MHB + lysed horse blood
[11] = tested on: β-hemolytic streptococci (23); experiment: MIC broth microdilution, β-hemolytic streptococci; conditions: β-hemolytic streptococci (23); MHB + lysed horse blood
[12] = E. faecium, vancomycin-susceptible (21)
[13] = E. faecalis, vancomycin-susceptible (23)
[14] = S. aureus (65), all resistance subsets

For `CN[C@H](CC(C)C)C(=O)N[C@H]1C(=O)N[C@@H](CC(N)=O)C(=O)N[C@H]2C(=O)N[C@H]3C(=O)N[C@H](C(=O)N[C@H](C(=O)O)c4cc(O)cc(O)c4-c4cc3ccc4O)[C@H](O)c3ccc(c(Cl)c3)Oc3cc2cc(c3O[C@@H]2O[C@H](CO)[C@@H](O)[C@H](O)[C@H]2O[C@H]2C[C@](C)(N)[C@H](O)[C@H](C)O2)Oc2ccc(cc2Cl)[C@H]1O` [Vancomycin], the MIC50 (VanC enterococci (22)) was 4 µg/mL (≈ 2.76 µM), the MIC90 (VanC enterococci (22)) was 4 µg/mL (≈ 2.76 µM) and the MIC50 ([1]; Staphylococcus aureus, MRSA) was 0.5 µg/mL (≈ 0.345 µM). For the same compound, the MIC90 ([1]; Staphylococcus aureus, MRSA) was 1 µg/mL (≈ 0.69 µM), the MIC50 ([2]; Enterococcus faecium) was 0.5 µg/mL (≈ 0.345 µM) and the MIC90 ([2]; Enterococcus faecium) was 1 µg/mL (≈ 0.69 µM). For the same compound, the MIC50 ([3]; Enterococcus faecalis) was 1 µg/mL (≈ 0.69 µM), the MIC90 ([3]; Enterococcus faecalis) was 2 µg/mL (≈ 1.38 µM) and the MIC50 ([4]; Staphylococcus aureus) was 1 µg/mL (≈ 0.69 µM). The MIC90 ([4]; Staphylococcus aureus) was 4 µg/mL (≈ 2.76 µM), the MIC50 ([5]; Staphylococcus aureus, MSSA) was 0.5 µg/mL (≈ 0.345 µM) and the MIC90 ([5]; Staphylococcus aureus, MSSA) was 1 µg/mL (≈ 0.69 µM). It also gave an MIC50 ([6]; Staphylococcus epidermidis) of 1 µg/mL (≈ 0.69 µM), an MIC90 ([6]; Staphylococcus epidermidis) of 2 µg/mL (≈ 1.38 µM) and an MIC50 ([7]; Enterococcus faecium) of over 64 µg/mL. The MIC90 ([7]; Enterococcus faecium) was over 64 µg/mL, the MIC50 ([8]; Enterococcus faecium) was 64 µg/mL (≈ 44.2 µM) and the MIC90 ([8]; Enterococcus faecium) was over 64 µg/mL. The MIC50 ([9]; Enterococcus faecalis) was over 64 µg/mL, the MIC90 ([9]; Enterococcus faecalis) was over 64 µg/mL and the MIC50 ([10]; Enterococcus faecalis) was over 64 µg/mL. For the same compound, the MIC90 ([10]; Enterococcus faecalis) was over 64 µg/mL.
Teicoplanin [reference compound] was tested, and the “MIC 50%” value (VanC enterococci (22); VanC enterococci (22)) was 1 µg/mL, the “MIC 90%” value (VanC enterococci (22); VanC enterococci (22)) was 2 µg/mL and the “MIC 50%” value ([1]; MRSA (22)) was 0.5 µg/mL. The “MIC 90%” value ([1]; MRSA (22)) was 0.5 µg/mL, the “MIC 50%” value (S. pneumoniae (22)) was 0.12 µg/mL and the “MIC 90%” value (S. pneumoniae (22)) was 0.12 µg/mL. For the same compound, the “MIC 50%” value [2, 12] was 1 µg/mL, the “MIC 90%” value [2, 12] was 1 µg/mL and the “MIC 50%” value [3, 13] was 0.5 µg/mL. For the same compound, the “MIC 90%” value [3, 13] was 0.5 µg/mL, the “MIC 50%” value [4, 14] was 0.5 µg/mL and the “MIC 90%” value [4, 14] was 8 µg/mL. The “MIC 50%” value ([5]; MSSA (22)) was 0.5 µg/mL, the “MIC 90%” value ([5]; MSSA (22)) was 1 µg/mL and the “MIC 50%” value ([6]; S. epidermidis (43)) was 2 µg/mL. For the same compound, the “MIC 90%” value ([6]; S. epidermidis (43)) was 4 µg/mL, the “MIC 50%” value ([7]; E. faecium, VanA (10)) was 64 µg/mL and the “MIC 90%” value ([7]; E. faecium, VanA (10)) was over 64 µg/mL. For the same compound, the “MIC 50%” value ([8]; E. faecium, VanB (10)) was 1 µg/mL, the “MIC 90%” value ([8]; E. faecium, VanB (10)) was 1 µg/mL and the “MIC 50%” value ([9]; E. faecalis, VanB (12)) was 0.5 µg/mL. The “MIC 90%” value ([9]; E. faecalis, VanB (12)) was 1 µg/mL, the “MIC 50%” value ([10]; E. faecalis, VanA (11)) was 64 µg/mL and the “MIC 90%” value ([10]; E. faecalis, VanA (11)) was over 64 µg/mL. For the same compound, the “MIC 50%” value [11] was 0.12 µg/mL and the “MIC 90%” value [11] was 0.25 µg/mL.
